In patent US6417235B2, “Method and use of α-amino-β-mercapto-ethane derivatives as dicarbonyl scavengers for treatment of conditions resulting from protein, lipid, and DNA damage” (University of Kentucky Research Foundation, priority 2000, dated 2002):

Tested on: glycation of histone H1 by ADP-ribose
Assay: Screening of inhibitors of nonoxidative advanced glycation: AGE-fluorescence on 96 well-microtiter plate
Format: biochemical, calf
Settings: (± SEM, n = 2); for AGE-fluorescence (day 5): complete reaction under air
Procedure: All operations were carried out at 4° C. Chromatin was isolated from fresh calf thymus by extraction with 0.14 M NaCl, 0.05 M Na2S2O5, as described earlier in Wondrak supra. After repeated extraction with 5% HCl)4 and centrifugation (1500 g), histone H1 was precipitated from the supernatant by addition of TCA (20% final concentration v/v). The histone H1 precipitate was colleted by centrifugation (12,000 g) and deionized water. After extensive dialysis (MW cut-off: 12,000-14,000) against water for 48 h, the sample was lyophilized and the protein was stored at 4° C. SDS-PAGE (12%) was used to analyze the purity of the preparation.
Earlier studies have reported that D-penicillamine inhibits collagen crosslinking and AGE fluorescence caused by sugars (McPherson, J. D., Shilton, B. H., and Walton, D. J. 1988. Role of Fructose in Glycation and Cross-Linking of Proteins. Biochemistry 27, 1901-1907) and reaction of D-penicillamine with aldehyde groups of proteins (Deshmukh, K., and Nimm, M. E. 1969. A Defect in the Intramolecular and Intermolecular Cross-linking of Collagen caused by Penicillamine. J. Biol. Chem. 244, 1787-1795). A number of different penicillamines and penicillamine derivatives were tested to determine the inhibition of AGE-fluorescence on histone H1 at physiological pH. The reaction conditions for the glycation of histone H1 by ADP-ribose mimic physiological conditions to the extent possible. Reaction mixtures contain 1.5 mg/ml histone Hl, 1.0 mM ADP-ribose, 50 mM potassium phosphate buffer, pH 7.4, 37° C. D,L-penicillamine; L-penicillamine; D-penicllamine; D-penicillaminedisulfide and N,S- isopropylidine-D-penicillamine were tested in concentrations of 1,5 and 10 mM. The detected reaction parameter representing the accumulation of protein damage is AGE-fluorescence ((λex=[…]), which is suppressed by the presence of a compound with inhibitory activity. Generation of AGE-type fluorescence (λex=355 nm; λem=405 nm) was monitored over time at 37° C; which is in the range of the broad excitation/emission maxima of AGE compounds. To allow high throughput sample processing on 96 well microtiter plates, the reaction volumes are 300 μl. Fluorescence on the 96-well microtiter plates was measured using an automated microtiter fluorescence reader. Fluorescence of the 1 ml samples of the glycation reaction mixtures was measured using a Hitachi F-200 fluorescence spectophotometer, and prior to measurement the protein sample is dialyzed extensively against water (MW cutoff=[…]), lyophilized and reconstituted in reaction buffer. For inhibitor screening the plate is read on a Fluoroskan II plate reader (Titertek, ICN) at the excitation/emission wavelengths set forth above at a bandwidth of 35 nm.
The following screening scheme is used (see Table 1): AGE-fluorescence is determined at the beginning and after five days of incubation. Test compounds that are inherently fluorescent (designated false negatives) were identified by the initial fluorescence measurement (See Table 1, NADH for example). Since these are compounds of uncertain activity, they are diverted directly to the second stage of the screen. Aminoguanidine, a known glycation inhibitory agent, was used as a positive control for suppression of the increase on AGE-fluorescence. After five days incubation and plate reading, fluorescence quenchers (designated false positives) are excluded by measuring the quenching activity of the test compound by addition of AGE modified protein having known fluorescence activity to one microtiter plate well containing test compound in the complete reaction mixture. For this, AGE-BSA is used as the AGE-type fluorescence standard. This AGE-BSA test excludes false positives compounds that function by fluorescence quenching. If fluorescence quenching occurs the test compound is excluded from further screening. […] The protein is visualized by silver staining of the gel. […]

Compound	AGE-fluorescence (day 0) (compound 1 mM)	AGE-fluorescence (day 5) (compound 1 mM)	AGE-fluorescence (day 0) (compound 5 mM)	AGE-fluorescence (day 5) (compound 5 mM)	AGE-fluorescence (day 0) (compound 10 mM)	AGE-fluorescence (day 5) (compound 10 mM)
C[N+](C)(C)[C@@H](Cc1c[nH]c(=S)[nH]1)C(=O)[O-] [L-Ergothioneine]	1.0 (0.1) relative units	13 (0.0) relative units	1.2 (0.0) relative units	9.3 (0.2) relative units	1.2 (0.1) relative units	7.4 (0.1) relative units
N[C@@H](CS)C(=O)O [L-Cys]	1.2 (0.1) relative units	14 (0.3) relative units	1.1 (0.1) relative units	11 (0.2) relative units	1.2 (0.1) relative units	9.0 (0.2) relative units
NC(=O)C1=CN([C@@H]2O[C@H](COP(=O)(O)OP(=O)(O)OC[C@H]3O[C@@H](n4cnc5c(N)ncnc54)[C@H](O)[C@@H]3O)[C@@H](O)[C@H]2O)C=CC1 [NADH]			52 (0.3) relative units	31 (0.0) relative units		
CC(C)(S)C(N)C(=O)O (racemic) [D,L-Penicillamine]	1.1 (0.2) relative units	13 (0.0) relative units	1.1 (0.1) relative units	2.7 (0.0) relative units	1.1 (0.1) relative units	1.7 (0.0) relative units
NC(CCS)C(=O)O (racemic) [D,L-Homocysteine]	1.3 (0.0) relative units	16 (1.1) relative units	1.2 (0.2) relative units	22 (0.1) relative units	1.1 (0.1) relative units	27 (1.7) relative units
COC(=O)[C@@H](N)CS [L-Cys-OMe]	1.2 (0.1) relative units	15 (0.1) relative units	1.3 (0.1) relative units	12 (0.8) relative units	1.2 (0.1) relative units	9.0 (0.2) relative units
O=C1CC(=O)NC(=S)N1 [2-Thiobarbituric acid]	1.1 (0.1) relative units	12 (0.4) relative units	1.2 (0.1) relative units	5.3 (0.4) relative units	1.3 (0.1) relative units	2.3 (0.0) relative units
N[C@@H](CCC(=O)N[C@@H](CS)C(=O)NCC(=O)O)C(=O)O [GSH, glutathione]	1.3 (0.0) relative units	19 (0.3) relative units	1.1 (0.3) relative units	17 (0.3) relative units	1.1 (0.0) relative units	14 (0.5) relative units
NCCS [Cysteamine]	1.0 (0.1) relative units	10 (0.6) relative units	1.1 (0.1) relative units	9.0 (0.7) relative units	1.2 (0.2) relative units	6.0 (0.3) relative units
CC(=O)N[C@@H](CS)C(=O)O [NAC]	1.2 (0.2) relative units	11 (0.6) relative units	1.0 (0.1) relative units	10 (0.4) relative units	1.1 (0.1) relative units	9.4 (0.6) relative units
L-Cys-Gly	1.3 (0.3) relative units	17 (0.0) relative units	1.2 (0.2) relative units	26 (0.4) relative units	1.2 (0.1) relative units	40 (0.0) relative units
